The source of these data is patent US6579686B2, “Constitutive androstane receptor” (SmithKline Beecham Corporation, priority 2000, dated 2003).

“Also recorded” adds a separate entry of the source. Like-named read-outs stand apart in the source and are kept apart here.

The target in one data set is T1, hCAR LBD (Homo sapiens, UniProt Q14994).
T1 construct: or 103-348 of hCAR; made in house; host or cells: E. coli BL21(DE3), pRSETa
T1 sequence (Q14994 103-348 isoform Q14994-2): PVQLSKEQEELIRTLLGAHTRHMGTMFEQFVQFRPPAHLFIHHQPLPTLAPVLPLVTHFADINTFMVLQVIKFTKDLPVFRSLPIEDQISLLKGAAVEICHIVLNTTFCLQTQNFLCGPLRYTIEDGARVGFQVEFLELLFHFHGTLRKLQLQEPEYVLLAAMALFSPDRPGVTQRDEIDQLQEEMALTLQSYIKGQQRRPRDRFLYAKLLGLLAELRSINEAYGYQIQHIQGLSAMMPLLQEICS
Put plainly: Scintillation proximity binding assay with [3H]clotrimazole. The note with it: 10 nM [3H]clotrimazole, 10 μM competitor. For orientation: SPA uses beads or plates that emit light when radiolabelled molecules are held near them.

Data set [1] has as its target T2, human CAR (hCAR) (Homo sapiens, UniProt Q14994).
T2 sequence (Q14994 1-348 isoform Q14994-2): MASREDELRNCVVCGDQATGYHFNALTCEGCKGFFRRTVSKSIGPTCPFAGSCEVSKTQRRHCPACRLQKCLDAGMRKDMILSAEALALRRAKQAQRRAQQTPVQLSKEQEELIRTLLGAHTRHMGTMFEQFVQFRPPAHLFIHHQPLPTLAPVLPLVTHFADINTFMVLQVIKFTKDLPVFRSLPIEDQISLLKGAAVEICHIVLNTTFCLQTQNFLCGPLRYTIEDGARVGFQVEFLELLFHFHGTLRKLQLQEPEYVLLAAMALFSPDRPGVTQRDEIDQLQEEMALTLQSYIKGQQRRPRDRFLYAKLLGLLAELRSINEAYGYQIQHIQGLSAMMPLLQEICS
The note with it: for EC50: read-out: EC50 values for activation/deactivation of CAR, HCAR, transfected CV-1 cells, 0.0001 μM to 10 μM in half-log steps, EC50 given only for ≧ 2-fold activation or deactivation relative to basal activity.

In data set [2] the target is T3, mouse CAR (mCAR) (Mus musculus, UniProt O35627).
T3 sequence (O35627 1-358): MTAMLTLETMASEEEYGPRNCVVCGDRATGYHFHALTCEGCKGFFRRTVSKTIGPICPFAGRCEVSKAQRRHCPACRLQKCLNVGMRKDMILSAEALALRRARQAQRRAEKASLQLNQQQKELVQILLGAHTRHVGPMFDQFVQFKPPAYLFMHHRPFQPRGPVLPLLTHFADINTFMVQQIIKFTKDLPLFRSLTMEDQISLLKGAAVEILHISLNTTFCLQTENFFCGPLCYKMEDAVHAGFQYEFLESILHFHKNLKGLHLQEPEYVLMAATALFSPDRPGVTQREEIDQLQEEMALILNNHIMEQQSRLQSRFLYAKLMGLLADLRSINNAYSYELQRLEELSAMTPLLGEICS

For data set [3], the target named is T2, human CAR (hCAR). Put plainly: in vitro.
Data set [4] addresses T3, mouse CAR (mCAR). Kind of data set: in vitro.
For another data set, the target named is T4, hCAR/SRC-1 interaction (Homo sapiens, UniProt Q14994).
T4 construct: or 103-348 of hCAR; made in house; host or cells: E. coli BL21(DE3), pRSETa
T4 sequence (Q14994 103-348 isoform Q14994-2): T1 sequence (Q14994 103-348 isoform Q14994-2)
Kind of data set: FRET ligand sensing assay, hCAR LBD with SRC-1 LXXLL peptide. As to conditions: SRC-1 peptide amino acids 676 to 700. Type of data set: biochemical.

Data set [5] deals with T2, human CAR (hCAR). Kind of data set: cell-based.
The mark [6] stands for this setting: read-out: EC50 values for activation/deactivation of CAR, mCAR, transfected CV-1 cells, 0.0001 μM to 10 μM in half-log steps, EC50 given only for ≧ 2-fold activation or deactivation relative to basal activity.
Where [7] appears, read: CV-1 cells, PB tested at 0.5 mM (high concentrations).

Experimental for hCAR/SRC-1 interaction: The mCAR and hCAR LBD were each expressed in E. coli strain BL21(DE3) as a polyhistidine-tagged fusion protein. […] Cells were lysed by passing 3 times through an APV Rannie MINI-lab homogenizer and cell debris was removed by centrifugation (30 minutes, 20,000 g, 4° C.). After adjusting the imidazole concentration to 50 mM, the lysate was loaded onto a column packed with Sepharose [Ni^++ charged] Chelation resin (Pharmacia) and pre-equilibrated with TBS pH 8.0/50 mM imidazole. […] The recombinant protein was eluted with a gradient from 50 to 500 mM imidazole. Column peak fractions were pooled immediately and diluted 5-7 fold with 25 mM Tris pH 8.0, containing 5% 1,2-propanediol, 0.5 mM EDTA and 5 mM DTT. The diluted protein sample was then loaded onto a column packed with Poros HQ resin (PerSeptive Biosystems) and eluted with a gradient from 0-500 mM NaCl. Peak fractions were pooled and concentrated using Centri-prep 10K (Amicon) and subjected to size exclusion, using a column packed with Superdex-75 resin (Pharmacia) pre-equilibrated with TBS, pH 8.0, containing 5% 1,2-propanediol, 0.5 mM EDTA and 5 mM DTT.
The purified CAR LBDs were desalted/buffer exchanged using PD-10 gel filtration columns into PBS [100 mM NaPhosphate, pH 7.2, 150 mM NaCl]. […]
Fluorescence resonance energy transfer (FRET) ligand sensing assay. […]

With `Clc1cnc(Oc2ccc(Oc3ncc(Cl)cc3Cl)cc2)c(Cl)c1` [TCPOBOP, 1,4-bis[2-(3,5-dichloropyridyloxy)]benzene], the “competition with [3H]clotrimazole for binding to hCAR (in words)” value (shortened to “competition with [3H]clotrimazole”) on hCAR LBD is “did not compete”. At human CAR (hCAR) [1] (CV-1 cells, screened at 10 μM), the “effect on hCAR reporter activity (in words)” value was “virtually no activity; also recorded: little or no activity”. Moreover, the EC50 on human CAR (hCAR) [1] was more than 10 µM; on mouse CAR (mCAR) [2] (read-out: EC50 for activation of mCAR, CV-1 cells) it was approximately 0.1 µM; on mouse CAR (mCAR) [2] (setting [6]), 0.1 µM. Also, at mouse CAR (mCAR) [2] (CV-1 cells, screened at 10 μM), the “effect on mCAR reporter activity (in words)” value is reported as “efficacious activator of mCAR”.
Take `Clc1ccccc1C(c1ccccc1)(c1ccccc1)n1ccnc1` [clotrimazole]: the “effect on hCAR reporter activity (in words)” value at human CAR (hCAR) [1] (CV-1 cells, screened at 10 μM) is reported as “efficacious deactivator of hCAR”.
As to `C[C@@H]1C[C@H]2[C@@H]3CCC4=CC(=O)C=C[C@]4(C)[C@@]3(F)[C@@H](O)C[C@]2(C)[C@@]1(O)C(=O)CO` [dexamethasone], the EC50 at 24 h at human CAR (hCAR) [3] and on mouse CAR (mCAR) [4] was more than 10 µM throughout.
For the compound `CCC1(c2ccccc2)C(=O)NC(=O)NC1=O` [PB, phenobarbital], the “effect on hCAR reporter activity (in words)” value on human CAR (hCAR) [1] (setting [7]) was “weak but reproducible deactivation; also recorded: deactivated hCAR”. For the same compound, on mouse CAR (mCAR) [2] (setting [7]), the “effect on mCAR reporter activity (in words)” value is reported as “weak but reproducible deactivation”.
As to `C[C@@]12CCC[C@H]1[C@@H]1CC[C@H]3C[C@@H](O)CC[C@]3(C)[C@H]1CC2` [androstanol], the “competition with [3H]clotrimazole” value on hCAR LBD is recorded as “competed efficiently”. For the same compound, the “effect on hCAR reporter activity (in words)” value on human CAR (hCAR) [1] (CV-1 cells, screened at 10 μM) is listed as “deactivated hCAR, though the effect was not nearly as pronounced as on mCAR”. The EC50 at human CAR (hCAR) [1] was more than 10 µM; at mouse CAR (mCAR) [2] (setting [6]) it was 0.84 µM. The “effect on mCAR reporter activity (in words)” value at mouse CAR (mCAR) [2] (CV-1 cells, screened at 10 μM) was “efficacious deactivator of mCAR”. Moreover, the “effect on hCAR LBD/SRC-1 interaction (in words)” value at hCAR/SRC-1 interaction is given as “disrupted this interaction”.
Consider `CCOP(=O)(OCC)C(=Cc1cc(C(C)(C)C)c(O)c(C(C)(C)C)c1)P(=O)(OCC)OCC` [SR12813], for which, at hCAR LBD, the “competition with [3H]clotrimazole” value is reported as “did not compete”. The “effect on hCAR reporter activity (in words)” value at human CAR (hCAR) [1] (CV-1 cells, screened at 10 μM) is “little or no effect; also recorded: little or no activity”. Moreover, the EC50 at human CAR (hCAR) [1] and on mouse CAR (mCAR) [2] (setting [6]) was more than 10 µM throughout. Also, the “effect on mCAR reporter activity (in words)” value on mouse CAR (mCAR) [2] (CV-1 cells, screened at 10 μM) is “little or no effect”.
For `CC(=O)[C@H]1CC[C@H]2[C@@H]3CC[C@@H]4CC(=O)CC[C@]4(C)[C@H]3CC[C@]12C` [5β-pregnane-3,20-dione], at hCAR LBD, the “competition with [3H]clotrimazole” value is “competed efficiently”. For the same compound, on human CAR (hCAR) [1] (CV-1 cells, relative to basal activity), the “activation of hCAR” value is listed as approximately 2 fold. At mouse CAR (mCAR) [2] (CV-1 cells, screened at 10 μM), the “effect on mCAR reporter activity (in words)” value is given as “only weak effects”. Also, the EC50 at human CAR (hCAR) [5] stood at 0.67 µM. Moreover, the “effect on hCAR LBD/SRC-1 interaction (in words)” value at hCAR/SRC-1 interaction is on record as “marked increase in the binding of SRC-1 to hCAR”. Also, the EC50 at 24 h on mouse CAR (mCAR) [4] was more than 10 µM.
Consider `CC#C[C@]1(O)CC[C@H]2[C@@H]3CCC4=CC(=O)CCC4=C3[C@@H](c3ccc(N(C)C)cc3)C[C@@]21C` [RU486], for which the EC50 at 24 h at human CAR (hCAR) [3] and at mouse CAR (mCAR) [4] was more than 10 µM each time.
